8 compounds from patent US7678918B2, “Intermediates for imidazonaphthyridines” (3M Innovative Properties Company, priority 1997, dated 2010) can be followed below.

Molecules are shown by their SMILES.

The test system of one assay is TNF. Put plainly: Cytokine Induction in Human Cells: tumor necrosis factor (TNF) secreted by PBMCs, ELISA. Format: cell-based. The following applies: 18 to 24 hours. The text has this:
(§1) An in vitro human blood cell system was used to assess cytokine induction by compounds of the invention. Activity is based on the measurement of interferon and tumor necrosis factor (ℑ) (IFN and TNF, respectively) secreted into culture media as described by Testerman et. al. In “Cytokine Induction by the Immunomodulators Imiquimod and S-27609”, Journal of Leukocyte Biology, 58, 365-372 (September, 1995). Blood Cell Preparation for Culture
(§2) Whole blood is collected by venipuncture into EDTA vacutainer tubes from healthy human donors. Peripheral blood mononuclear cells (PBMCs) are separated from whole blood by Histopaque®-1077 (Sigma Chemicals, St. Louis, Mo.) density gradient centrifugation. The PBMCs are suspended at 1.5-2×10^6 cells/mL in RPMI 1640 medium containing 10% fetal bovine serum, 2 mM L-glutamine and 1% penicillin/streptomycin solution (RPMI complete). 1 mL portions of PBMC suspension are added to 24 well flat bottom sterile tissue culture plates.
(§3) The compounds are solubilized in dimethyl sulfoxide (DMSO). The DMSO concentration should not exceed a final concentration of 1% for addition to the culture wells. The compounds are generally tested in a concentration range of from 0.1 to 100 μM.
(§4) The solution of test compound is added to the wells containing 1 mL of PBMCs in media. The plates are covered with plastic lids, mixed gently and then incubated for 18 to 24 hours at 37° C. with a 5% carbon dioxide atmosphere.
(§5) Following incubation the plates are centrifuged for 5-10 minutes at 1000 rpm (˜200×g) at 4° C. The cell culture supernatant is removed with a sterile polypropylene pipet and transferred to a 2 mL sterile cryotube. Samples are maintained at −70° C. until analysis.
Tumor necrosis factor (ℑ) (TNF) concentration is determined using an ELISA kit available from Genzyme, Cambridge, Mass. The results are expressed as pg/mL.
A general note: An ELISA detects its analyte on a solid surface through an enzyme-linked reagent.

The subject of a further assay is IFN. Put plainly: Cytokine Induction in Human Cells: interferon (IFN) secreted by PBMCs, A549/encephalomyocarditis bioassay. It is filed as cell-based. The following applies: 18 to 24 hours.
Description: as §1, §2, §3, §4, §5
Interferon is determined by bioassay using A549 human lung carcinoma cells challenged with encephalomyocarditis. The details of the bioassay method have been described by G. L. Brennan and L. H. Kronenberg in “Automated Bioassay of Interferons in Micro-test Plates”, Biotechniques, June/July 78, 1983, incorporated herein by reference. Briefly stated the method is as follows: A549 cells are incubated with samples and standard interferon dilutions at 37° C. for 24 hours. The incubated cells are then infected with an inoculum of encephalomyocarditis virus. The infected cells are incubated for an additional 24 hours at 37° C. before quantifying for viral cytopathic effect. The viral cytopathic effect is quantified by staining followed by visual scoring of the plates. Results are expressed as alpha reference units/mL based on the value obtained for NIH Human Leukocyte IFN standard.
Further: call rule not given here.

Turning to `CCCCc1nc2c(N)nc3cccnc3c2n1CCCCNC(=O)c1ccc(N2CCOCC2)nc1` [Example 106, N^1-[4(4-Amino-2-butyl-1H-imidazo[4,5-c][1,5]naphthyridin-1-yl)butyl]-6-morpholinonicotinamide], the TNF induction entry is “−” in the assay with TNF (Dose Concentration 0.1 μM), “+” with TNF (Dose Concentration 1.0 μM), “+” in the assay with TNF (Dose Concentration 10.0 μM) and “−” with TNF (Dose Concentration 100.0 μM). Besides, the IFN induction entry is on record as “+” with IFN (Dose Concentration 0.1 μM), “+” with IFN (Dose Concentration 1.0 μM), “+” in the assay with IFN (Dose Concentration 10.0 μM) and “−” in the assay on IFN (Dose Concentration 100.0 μM).

On to `CCCCc1nc2c(N)nc3cccnc3c2n1CCCCNC(=O)c1ccc2ncccc2c1` [Example 107, N^1-[4-(4-Amino-2-butyl-1H-imidazo[4,5-c][1,5]naphthyridin-1-yl)butyl]-6-quinolinecarboxamide], for which the TNF induction entry in the assay with TNF (Dose Concentration 0.1 μM) is reported as “−”; with TNF (Dose Concentration 1.0 μM), “+”; in the assay on TNF (Dose Concentration 10.0 μM), “+”; in the assay on TNF (Dose Concentration 100.0 μM), “−”. Moreover, the IFN induction entry is “+” with IFN (Dose Concentration 0.1 μM), “+” in the assay with IFN (Dose Concentration 1.0 μM), “+” in the assay on IFN (Dose Concentration 10.0 μM) and “−” in the assay on IFN (Dose Concentration 100.0 μM).

Regarding `CCCCc1nc2c(N)nc3cccnc3c2n1CCCCNC(=O)c1ccc(C(=O)c2ccccc2)cc1` [Example 113, N^1-[4-(4-Amino-2-butyl-1H-imidazo[4,5-c][1,5]naphthyridin-1-yl)butyl]-4-benzoylbenzamide], the TNF induction entry in the assay with TNF (Dose Concentration 0.1 μM) is reported as “−”; in the assay on TNF (Dose Concentration 1.0 μM), “+”; in the assay on TNF (Dose Concentration 10.0 μM), “+”; in the assay with TNF (Dose Concentration 100.0 μM) it was “+”. Also, the IFN induction entry in the assay with IFN (Dose Concentration 0.1 μM) is listed as “−”; in the assay on IFN (Dose Concentration 1.0 μM), “+”; in the assay on IFN (Dose Concentration 10.0 μM), “+”; in the assay with IFN (Dose Concentration 100.0 μM) it was “+”.

As for `CCCCc1nc2c(N)nc3cccnc3c2n1CCNS(C)(=O)=O` [Example 116, N^1-[4-(4-Amino-2-butyl-1H-imidazo[4,5-c][1,5]naphthyridin-1-yl)ethyl]methanesulfonamide], the TNF induction result with TNF (Dose Concentration 0.1 μM) is “−”; in the assay with TNF (Dose Concentration 1.0 μM), “+”; with TNF (Dose Concentration 10.0 μM), “+”; in the assay on TNF (Dose Concentration 100.0 μM), “+”. Moreover, the IFN induction result with IFN (Dose Concentration 0.1 μM) is reported as “−”; with IFN (Dose Concentration 1.0 μM), “+”; in the assay with IFN (Dose Concentration 10.0 μM) it was “+”; with IFN (Dose Concentration 100.0 μM) it was “+”.

Turning to `CCCCc1nc2c(N)nc3cccnc3c2n1CCNS(=O)(=O)c1ccccc1` [Example 117, N^1-[4-(4-Amino-2-butyl-1H-imidazo[4,5-c][1,5]naphthyridin-1-yl)ethyl]benzenesulfonamide], the TNF induction result was “−” with TNF (Dose Concentration 0.1 μM), “−” in the assay with TNF (Dose Concentration 1.0 μM), “+” in the assay with TNF (Dose Concentration 10.0 μM) and “+” with TNF (Dose Concentration 100.0 μM). The IFN induction entry in the assay on IFN (Dose Concentration 0.1 μM) was “−”; in the assay with IFN (Dose Concentration 1.0 μM), “−”; with IFN (Dose Concentration 10.0 μM), “+”; in the assay on IFN (Dose Concentration 100.0 μM), “+”.

With `CCCCc1nc2c(N)nc3cccnc3c2n1CCNC(=O)C1(c2ccc(Cl)cc2)CCCC1` [Example 119], the TNF induction result in the assay with TNF (Dose Concentration 1.0 μM), in the assay on TNF (Dose Concentration 10.0 μM) and in the assay with TNF (Dose Concentration 100.0 μM) was “−” in each case. Also, the IFN induction result in the assay with IFN (Dose Concentration 1.0 μM), in the assay with IFN (Dose Concentration 10.0 μM) and in the assay with IFN (Dose Concentration 100.0 μM) was “−” throughout.

Consider `CCCCc1nc2c(N)nc3cccnc3c2n1CCNC(=O)COCc1ccccc1` [Example 121], for which the TNF induction entry in the assay on TNF (Dose Concentration 1.0 μM), in the assay with TNF (Dose Concentration 10.0 μM) and in the assay on TNF (Dose Concentration 100.0 μM) was “+” each time. The IFN induction result in the assay on IFN (Dose Concentration 1.0 μM), in the assay with IFN (Dose Concentration 10.0 μM) and in the assay with IFN (Dose Concentration 100.0 μM) was “+” in each case.

As for `CCCCc1nc2c(N)nc3cccnc3c2n1CCNC(=O)CCCCCCCCC(=O)OC` [Example 122], the TNF induction entry in the assay on TNF (Dose Concentration 1.0 μM) is listed as “−”; in the assay on TNF (Dose Concentration 10.0 μM), “+”; with TNF (Dose Concentration 100.0 μM), “+”. In addition, the IFN induction entry in the assay with IFN (Dose Concentration 1.0 μM) is given as “−”; in the assay on IFN (Dose Concentration 10.0 μM), “+”; with IFN (Dose Concentration 100.0 μM) it was “+”.
